Test results from patent US20040167459A1, “Methods and systems for controlling and/or increasing iontophoretic flux” (priority 2003, published 2004).
Read-outs that look alike come from different tables or passages of the source.

Assays:
[1] = HEM; for Transference number: 0.5 mA DC
Description: (§1) FIG. 1 schematically depicts the setup employed to carry out human epidermal membrane (HEM) iontophoretic experiments described below. Scleral experiments were conducted using a simple side-by-side diffusion apparatus known to one of ordinary skill in the art. Conductive silver paint was purchased from Ladd Research Technologies (Williston, Vt.) and silver foil from EM-Science (Gibbstown, N.J.). Silver chloride powder, phosphate buffered saline (PBS, pH 7.4) tablets were purchased from Sigma (St. Louis, Mo.). ^14C-sodium salicylate was purchased from ARC (St. Louis, Mo.) and non-radiolabeled sodium salicylate from Sigma. Ultimate Gold® scintillation cocktail was purchased from Packard (Meriden, Conn.) and liquid scintillation counting was performed by a Packard TriCarb Model 1900 TR liquid scintillation analyzer. A custom built AC waveform generator power supply (EM-Tech Electronics, Lindon Utah) was used as the permeabilzation power supply for skin studies. The DC driving force for the skin studies was a 9 V battery (Duracell) combined with a fixed resistor. For scleral studies, there was no permeabilization source needed and all iontophoresis was conducted using a Phoresor PM-800 (Iomed, Inc., Salt Lake City, Utah). Human epidermal membrane was obtained from licensed sources and experiments were conducted under local IRB approval. Scleral tissue was obtained from freshly euthanized rabbit cadavers under local IACUC approval. All water was >18 MΩ prepared by the Milli-Q process. Ionac® MA-3475 (Sybron Chemical, Inc., Birmingham, N.J.) was pre-loaded with sodium salicylate by vigorously stirring the membranes in a 0.15 M sodium salicylate solution spiked with the radiolabel. Loading was considered complete when the DPM counts in the loading solution varied by less than 10% over a 12 hour period. The MA-3475 membranes were assembled in a group of five membranes and placed in the diffusion cell setup.
Permeabilized skin transport experiments were conducted using a side-by-side type diffusion cell with an open diffusional area of 0.85 Cm^2. The cells were separated by a piece of dermatomed, heat-separated human epidermal membrane with the stratum corneum facing the donor compartment.
The DC iontophoresis driving electrodes were prepared by dipping a silver foil strip into a 1:1 (w/w) mixture of conductive silver paint and finely ground silver chloride. After dipping, the electrodes were hung and allowed to cure at room temperature overnight. The AC permeabilizing electrodes were made by mechanically drilling holes into a piece of silver foil and electro-coating the perforated silver foil with AgCl by submersion in a saturated KCl solution and passing a 1 mA current for 10 minutes.
(§2) The receiver compartment was filled with 0.15 M PBS. In each experiment, the donor compartment contained 0.15 M sodium salicylate in water spiked with 25 nCi/ml ^14C-sodium salicylate.
A 1000 Hz AC potential was applied to decrease and maintain the skin resistance to 2 and 0.5 kΩ and a 9 V battery was connected to a fixed resistor in series to yield a direct current of 0.5 mA. Every 30 minutes, the entire volume of the receiver solution was removed, mixed with scintillation cocktail, and analyzed by liquid scintillation counting. All experiments were conducted at least in duplicate.
The amount of ^14C-salicylate transported across the membrane was plotted as a function of time. Permeabilities were determined from the following equations: [formula]
where J is the flux, Q is the amount of solute transported across the membrane, A is the area of the exposed membrane, t is time, P is the permeability, and CD is the concentration of the solute in the donor solution.
Permeabilities were plotted as a function of time and the slope of the best-fit line to the steady state portion of the curve was determined using regression analysis.

[2] = rabbit sclera
Description: as §1
Scleral transport experiments were conducted using a side-by-side type diffusion cell with an open diffusional area of 0.2 cm^2. The cells were separated by a piece of excised scleral tissue from adult rabbits. The diffusion cells were assembled with the conjunctival side facing the donor compartment.
The DC iontophoresis driving electrodes were prepared by dipping a silver foil strip into a 1:1 (w/w) mixture of conductive silver paint and finely ground silver chloride. After dipping, the electrodes were hung and allowed to cure at room temperature overnight.
as §2
Direct current DC was applied at currents of 0.5, 1, and 2 mA with a Phoresor. Every 30 minutes, the entire volume of the receiver solution was removed, mixed with scintillation cocktail, and analyzed by liquid scintillation counting. All experiments were conducted in triplicate.
The amount of ^14C-salicylate transported across the membrane was plotted as a function of time. Permeabilities were determined from the equations (8) and (9) and plotted and analyzed as in Example 1.

Which results are given for `O=C([O-])c1ccccc1O.[Na+]` [Salicylate, sodium salicylate]?
Transference number ([1]; AC + DC, 0.5 kΩ, PSM +): 0.32 ± 0.03; Transference number ([1]; AC + DC, 0.5 kΩ, PSM none): 0.12 ± 0.01; Transference number ([1]; AC + DC, 2 kΩ, PSM +): 0.16 ± 0.03; Transference number ([1]; AC + DC, 2 kΩ, PSM none): 0.12 ± 0.01; Transference number ([1]; DC only, PSM +): 0.18 ± 0.03; Transference number ([1]; DC only, PSM none): 0.13 ± 0.01; increase in current carried by the drug due to permselective membrane ([1]; AC permeabilization, target resistance 2 kΩ): about 30%; current carried by the drug ([1]; AC permeabilization, target resistance 2 kΩ, no permselective membrane): 12%; current carried by the drug ([1]; AC permeabilization, target resistance 2 kΩ, permselective membrane present): 16%; gain in current carried by the drug due to permselective material ([1]; purely DC iontophoresis): about 40%; current carried by the drug ([1]; purely DC iontophoresis, permselective material present): 18%; current carried by the drug ([1]; purely DC iontophoresis, without permselective material): 13%; increase in electrical transference efficiency due to permselective membrane ([1]; target resistance 0.5 kΩ): ~300%; electrical transference efficiency ([1]; target resistance 0.5 kΩ, with permselective membrane): 32%; electrical transference efficiency ([1]; target resistance 0.5 kΩ, without permselective membrane): 12%; increase of transference number by the permselective membrane [2]: between two- and three-fold; Salicylate Flux ([2]; DC 0.4 mA, PSM +): 21 ± 0.3 µg/min; Transference number ([2]; DC 0.4 mA, PSM +): 0.675 ± 0.073; Salicylate Flux ([2]; DC 0.4 mA, PSM none): 13 ± 0.1 µg/min; Transference number ([2]; DC 0.4 mA, PSM none): 0.385 ± 0.007; Salicylate Flux ([2]; DC 1.0 mA, PSM +): 48 ± 1.0 µg/min; Transference number ([2]; DC 1.0 mA, PSM +): 0.563 ± 0.013; Salicylate Flux ([2]; DC 1.0 mA, PSM none): 21 ± 0.2 µg/min; Transference number ([2]; DC 1.0 mA, PSM none): 0.235 ± 0.007; Salicylate Flux ([2]; DC 2.0 mA, PSM +): 109 ± 7.0 µg/min; Transference number ([2]; DC 2.0 mA, PSM +): 0.650 ± 0.048; Salicylate Flux ([2]; DC 2.0 mA, PSM none): 36 ± 2.0 µg/min; Transference number ([2]; DC 2.0 mA, PSM none): 0.210 ± 0.014; enhancement of salicylate flux by the permselective membrane ([2]; depending on current level): two- to three-fold; current carried by the drug ([2]; with permselective membrane): approximately 65%
